The values that follow come from US20090298887A1, “METHOD FOR IMPROVING HARVESTED SEED QUALITY” (Syngenta Corp Protection, Inc., priority 2004, published 2009).

Test [1] relates to soybean plants. The experiment in a line: Warm germination test of seeds harvested from treated soybean plants. It counts as in vivo. From the text: A preferred test of seed germination is a warm germination test because it is used for labeling purposes. Germination is defined as: “the emergence and development from the seed embryo of those essential structures which are indicative of the ability to produce a normal plant under favorable conditions.” The warm germination test reflects the stand producing potential of a seed lot under ideal planting conditions. In a typical warm germination test, 400 seeds from each seed lot are placed under moist conditions on blotters, rolled towels, or sand and maintained at 77° F. for about seven days. At the end of this period the seedlings are categorized as normal, abnormal, or diseased, and dead or hard seeds. The percentage germination is calculated from the number of normal seedlings from the total number of seeds evaluated.
(§1) In the method of the present invention, seeds harvested from plants treated with a foliar insecticide, or seeds harvested from plants whose pre-planted seeds were treated with a seed treatment insecticide, or seeds harvested from plants that underwent both treatments, both as the pre-planted seed (seed treatment) and as the post emergent plant (foliar insecticide treatment) were tested in warm germination and accelerated aging tests to determine the health and quality of the harvested seeds. In accordance with the germination tests, it was discovered that seed-producing plants resulting from the growers' application of insecticides at the seed stage, the foliar stage, and both, not only were healthier plants, but they also produced healthier seeds.
(§2) Germination studies were conducted on soybean plants comparing plants treated with a combination of fungicides with plants (1) wherein only insecticidal seed treatment was applied; (2) wherein insecticidal seed treatment was applied followed by foliar insecticidal treatment on the resulting plant; and (3) wherein only foliar insecticide was applied to a plant grown from untreated seed.

Test [2] concerns soybean plants. The experiment in a line: Accelerated aging test of seeds harvested from treated soybean plants. It counts as in vivo. How it is done: Another germination test, the accelerated aging test (AA), estimates the carryover potential of a seed lot in warehouse storage. The seeds are exposed to high temperatures and high relative humidity for short periods of time that cause seed deterioration. Seeds are suspended over water in a chamber for a period of time, for example 72 hours (wheat and soybeans) or 96 hours (corn), then tested in a standard warm germination test. This test only is usually used on seed whose longevity was in question.
as §1, §2

[3] abbreviates: foliar insecticide only (2 applications), untreated seed.
[4] abbreviates: insecticidal seed treatment only, 30 g.
Setting [5] is: insecticidal seed treatment only, 50 g.

`CC1(C)[C@H](C(=O)O[C@H](C#N)c2cccc(Oc3ccccc3)c2)[C@@H]1/C=C(\Cl)C(F)(F)F` (racemic) [lambda cyhalothrin]: the “Warm Germination (+/−Std. Error)” value in the test on soybean plants [1] (setting [3]) is recorded as 92.5 (0.70); in the test on soybean plants [1] (foliar insecticide only (8/8)) it was 92.9 (0.81); in the test with soybean plants [1] (foliar insecticide only (8/12)), 91.1 (0.81). Also, the entries for the “Accelerated Aging (+/−Std. Error)” value in the test with soybean plants [2] (setting [3]), with soybean plants [2] (foliar insecticide only (8/8)) and in the test with soybean plants [2] (foliar insecticide only (8/12)) were 89.3 (1.06), 89.7 (1.23) and 86.5 (1.23), respectively.

As to `CN1COCN(Cc2cnc(Cl)s2)/C1=N\[N+](=O)[O-]` [Thiamethoxam, thiamethoxam], the “Warm Germination (+/−Std. Error)” value in the test with soybean plants [1] (setting [4]) is given as 91.4 (0.63); in the test with soybean plants [1] (setting [5]), 91.6 (0.65). In addition, the “Accelerated Aging (+/−Std. Error)” value is reported as 86.7 (0.95) in the test on soybean plants [2] (setting [4]) and 90.4 (0.98) in the test with soybean plants [2] (setting [5]).
